Assay results taken from patent publication US20240201169A1, “METHODS OF THREE-DIMENSIONAL TUMOR SPHEROID MICROARRAY FOR HIGH-THROUGHPUT, HIGH-CONTENT IMMUNE CELL-MEDIATED CYTOTOXICITY” (RENSSELAER POLYTECHNIC INSTITUTE, priority 2021, published 2024).

Tests used:
MDA-MB-231 spheroids = experiment: 3D tumor spheroid 330-micropillar/microwell cytotoxicity (NK ADCC/drug combination, paclitaxel dose response); type: cell-based; details: for target cell cytotoxicity of combination: combination of NK92-CD16 at E:T 10:1, Trastuzumab and drug (3.5 nM doxorubicin, p<0.01; 7.0 nM paclitaxel, p<0.05)
Protocol: (§1) High-content imaging of 3D tumor spheroid micropillar array for effector cell-mediated cytotoxicity including NK ADCC/drug combination. Uniform-sized 3D spheroids in the 330-micropillar array were used to perform high-throughput ADCC on three different cancer cell lines; MiaPaCa-2, MCF7 and MDA-MB-231, the latter a triple negative breast cancer cell line, in the presence and absence of two chemotherapeutic drugs, doxorubicin and paclitaxel. The ADCC screen was performed by spotting 250 nL onto polydopamine-coated micropillars including 2500 target cancer cells per spot. The cells were cultured for 3 days and then treated with NK92-CD16 cells. […] As a control, one block of spots was reserved for exposure of target cells with both antibody and the drugs but without NK92-CD16 cells. The micropillar/microwell sandwich platform was incubated for 24 h upside-down to allow for target cell killing on culture day 3. The next day, the chips were then washed, stained with Hoechst 33342, Calcein-AM and Propidium Iodide, and imaged using the ASFA™ scanner.
(§2) There was interest in whether MDA-MB-231, which is a triple negative breast cancer cell line having reduced expression of estrogen receptor (ER), progesterone receptor and HER252, was susceptible to cell death upon combination exposure of paclitaxel, Atezolizumab and NK92-CD16 cells. Triple negative breast cancers are particularly aggressive to treat due to very low expression levels of ER, PR and HER253. To test this, the three target cancer cell lines were spotted onto the 330-micropillar platform to generate the corresponding 3D spheroids. […] The 3D spheroids on the micropillar chip were incubated for 24 h, and then stained and imaged.
3D experiments on 330-micropillar/microwell sandwich system. Polystyrene 330 micropillar chips (MBD Korea Co., South Korea) were coated with polydopamine, washed and dried until further use. The 330 well chips were UV-treated using a 96 W transilluminator (Syngene GVM-30) for 4 h to enhance surface hydrophilicity. Cancer cells were detached as described previously and mixed with high concentration growth factor-reduced Matrigel to obtain a final cell concentration of 1×10^7 cells/mL. Then, 250 nL of the Matrigel-cell mixture was spotted using the ASFA™ spotter onto the polydopamine coated 330 micropillar chips. The chips were incubated face down in a humidity chamber at 37° C. for 15 min to allow for gelation and then they were sandwiched with the corresponding 330 microwell chip including 3.6 μL of fresh medium per well. The chips were cultured for a period of 3 days prior to NK cell exposure. The cell growth medium on the chip was exchanged every 2 days. For cytotoxicity experiments, where the NK92-CD16 ratio was varied, 25 different conditions were tested (see Table 1 below), including a dead control (via addition of saponin).
(§3) Similarly, for the dose response experiments with paclitaxel, where the E:T ratio was fixed at 5:1, 25 different conditions including a dead cell control were evaluated, as shown in Table 2.
Unconjugated anti-HER2 antibody was used for experiments on 330 micropillar/microwell chips. […] The micropillar chip with target cells was then stamped onto the 330 microwell chip and incubated upside down for 24 h. […] The chips were subsequently washed in DPBS and imaged using an ASFA™ Cell Scanner (MBD Korea Co., South Korea) and quantitatively analyzed using cell analyzer software within the imaging system. […]

MCF7 spheroids = type: cell-based; details: for target cell cytotoxicity of combination: combination of NK92-CD16 at E:T 10:1, Trastuzumab and drug (3.5 nM doxorubicin, p<0.01; 7.0 nM paclitaxel, p<0.05)
Protocol: as §1, §2
3D experiments on 330-micropillar/microwell sandwich system. Polystyrene 330 micropillar chips (MBD Korea Co., South Korea) were coated with polydopamine, washed and dried until further use. The 330 well chips were UV-treated using a 96 W transilluminator (Syngene GVM-30) for 4 h to enhance surface hydrophilicity. Cancer cells were detached as described previously and mixed with high concentration growth factor-reduced Matrigel to obtain a final cell concentration of 1×10^7 cells/mL. Then, 250 nL of the Matrigel-cell mixture was spotted using the ASFA™ spotter onto the polydopamine coated 330 micropillar chips. […]
as §3
(§4) Unconjugated anti-HER2 antibody was used for experiments on 330 micropillar/microwell chips. […] The chips were subsequently washed in DPBS and imaged using an ASFA™ Cell Scanner (MBD Korea Co., South Korea) and quantitatively analyzed using cell analyzer software within the imaging system. […]

[1] = test system: three target cancer cell lines (3D spheroids); experiment: cells; details: 24 h, read-out: EC50 (paclitaxel-induced cytotoxicity)
From the text: as §2
3D experiments on 330-micropillar/microwell sandwich system. Polystyrene 330 micropillar chips (MBD Korea Co., South Korea) were coated with polydopamine, washed and dried until further use. […]
as §3, §4

MiaPaCa-2 spheroids = details: antibody 2.5 μg/mL with NK92-CD16 (5:1) and paclitaxel dose range, 24 h
Protocol: as §1, with “The next day, the chips were then washed, stained with Hoechst 33342, Calcein-AM and Propidium Iodide, and imaged using the ASFA™ scanner.” left out
as §3, §4

[2] = paclitaxel alone, spheroid culture

Compound	target cell cytotoxicity of combination (MDA-MB-231 spheroids; 24 h)	target cell cytotoxicity of combination (MCF7 spheroids; 24 h)	EC50 [1] [µM]	effectiveness as a cytotoxic agent (MDA-MB-231 spheroids; [2])	fold lower EC50 value for paclitaxel (MDA-MB-231 spheroids; paclitaxel in the presence of Atezolizumab 2.5 μg/mL along with NK92-CD16 (5:1), 24 h)	cytotoxic effectiveness of condition (MDA-MB-231 spheroids; paclitaxel in the presence of both Trastuzumab 2.5 μg/mL and NK92-CD16 (5:1), 24 h)	effectiveness as a cytotoxic agent (MCF7 spheroids; [2])	fold lower EC50 value for paclitaxel (MCF7 spheroids; paclitaxel with Trastuzumab 2.5 μg/mL and NK92-CD16 (5:1) vs absence of antibody and effector cells, 24 h)	inducing cytotoxicity (MiaPaCa-2 spheroids)
COc1cccc2c1C(=O)c1c(O)c3c(c(O)c1C2=O)C[C@@](O)(C(=O)CO)C[C@@H]3O[C@H]1C[C@H](N)[C@H](O)[C@H](C)O1 [doxorubicin]	significantly more effective	significantly more effective							
CC(=O)O[C@H]1C(=O)[C@@]2(C)[C@H]([C@H](OC(=O)c3ccccc3)[C@]3(O)C[C@H](OC(=O)[C@H](O)[C@@H](NC(=O)c4ccccc4)c4ccccc4)C(C)=C1C3(C)C)[C@]1(OC(C)=O)CO[C@@H]1C[C@@H]2O [paclitaxel]	significantly more effective	significantly more effective	> 500	poorly effective	approximately 43 fold	did not prove to be effective	poorly effective	approximately 1.8 fold	
Atezolizumab									effective in inducing cytotoxicity
